How the values were obtained:
[1] = tested on: isolated rat bladder strips; experiment: Inhibition of contractions of isolated rat bladder strips; settings: strips stimulated with additional 15 mM KCl; for IC50: 0.5 h, concentration eliciting 50% inhibition of pre-drug contractile activity, 30 minute challenge per concentration, read-out: IC50; for inhibition at 30 µM: maximum percentage inhibition of contractile activity, read-out: % Inhibition of Contractility @ 30 μM
Description: The compounds of the examples were tested to determine their ability to inhibit contractions of isolated rat bladder strips. See Foster, C. […] Malmgren, A. et al. J.Urol.
Male Sprague-Dawley rats (150-200 g) were obtained from ACE animal suppliers. Animals were allowed free access to food and water.
Animals were euthanized by CO2 asphyxiation followed by a bilateral thoracotomy. […] The bladder was opened and then cut into strips 1-2 mm in width and 7-10 mm in length. The strips were subsequently suspended in a 10 ml tissue bath under an initial resting tension of 1.5 g. The strips were held in place by two surgical clips one of which was attached to a fixed hook while the other was attached to an isometric force transducer. […] The carbachol was then washed out and the tissue allowed to relax to its resting level of activity. Following a further 30 minute period of recovery an additional 15 mM KCl were introduced into the tissue bath. […] Following stabilization of this enhanced level of contractile activity, incremental increases in the concentration of test compound or vehicle were introduced into the tissue bath. Contractile activity was measured for each compound or vehicle concentration during the last minute of a 30 minute challenge.
Isometric force developed by the bladder strips was measured using a force transducer and recorded on a polygraph. Contractile activity was assessed by measuring either the average amplitude of the contractions (baseline to peak force) occurring during a one minute period or, preferably, by integrating the contractile activity with respect to time (one minute measuring period).
The percentage inhibition of contractile activity evoked by each concentration of a given test compounds was used to generate a concentration-response curve.

SMILES	IC50 [1]	melting point	inhibition at 30 µM [1]
CC(C)(C)C(=O)Nc1ccc2oc3c(c2c1)CCCC3 [Example 1, 2,2-DIMETHYL-N-(6,7,8,9-TETRAHYDRO-DIBENZOFURAN-2-YL)-PROPIONAMIDE]	0.2 to 0.7 µM	210 to 211 °C	–
CC(C)(C)NC(=O)Nc1ccc2oc3c(c2c1)CCCC3 [Example 83, 1-TERT-BUTYL-3-(6,7,8,9-TETRAHYDRO-DIBENZOFURAN-2-YL)-UREA]	4 to 5 µM	310 to 312 °C (dec.)	–
CC(C)CC(=O)Nc1ccc2oc3c(c2c1)CCCCCC3 [Example 64, 3-METHYL-N-[6,7,8,9,10,11-HEXAHYDRO-BENZO[B]-CYCLOOCTA[D]-FURAN-2-YL]BUTYRAMIDE]	0.1 to 0.5 µM	154 to 155 °C	–
O=C(Nc1ccc2oc3c(c2c1)CCCC3)c1ccccc1 [Example 18, N-(6,7,8,9-TETRAHYDRO-DIBENZOFURAN-2-YL)-BENZAMIDE]	–	178 to 180 °C	40 to 50%
O=C(Nc1ccc2oc3c(c2c1)CCCC3)C12CC3CC(CC(C3)C1)C2 [Example 5, ADAMANTANE-1-CARBOXYLIC ACID (6,7,8,9-TETRAHYDRO-DIBENZOFURAN-2-YL)-AMIDE]	–	247 to 248 °C	10 to 30%
CC(C)(C)CC(=O)Nc1ccc2oc3c(c2c1)CCC3 [Example 23, N-(2,3-DIHYDRO-1H-CYCLOPENTA[B]BENZOFURAN-7-YL)-3,3-DIMETHYL-BUTYRAMIDE]	0.35 to 0.53 µM	195.5 to 197 °C	–
CC(=O)Nc1ccc2oc3c(c2c1)CCCC3 [Example 11, N-(6,7,8,9-TETRAHYDRO-DIBENZOFURAN-2-YL)-ACETAMIDE]	–	195.5 to 197.5 °C	20 to 30%
O=C(Cc1ccccc1)Nc1ccc2oc3c(c2c1)CCCC3 [Example 4, 2-PHENYL-N-(6,7,8,9-TETRAHYDRO-DIBENZOFURAN-2-YL)-ACETAMIDE]	9.1 to 12 µM	180 to 181 °C	–
CC(C)CC(=O)Nc1ccc2oc3c(c2c1)CCC3 [Example 25, N-(2,3-DIHYDRO-1H-CYCLOPENTA[B]BENZOFURAN-7-YL)-3-METHYL-BUTYRAMIDE]	3 to 8 µM	162 to 163 °C	–
CC(C)(C)C(=O)Nc1ccc2oc3c(c2c1)CCCCCC3 [Example 63, 2,2-DIMETHYL-N-[6,7,8,9,10,11-HEXAHYDRO-BENZO[B]-CYCLOOCTA[D]-FURAN-2-YL]PROPIONAMIDE]	0.11 to 0.25 µM	189 to 190 °C	–
CC(C)(C)c1ccc(C(=O)Nc2ccc3oc4c(c3c2)CCCC4)cc1 [Example 6, 4-TERT-BUTYL-N-(6,7,8,9-TETRAHYDRO-DIBENZOFURAN-2-YL)-BENZAMIDE]	–	185 to 186 °C	10 to 20%
CC(C)(C)C(=O)Nc1ccc2oc3c(c2c1)CCCCC3 [Example 27, 2,2-DIMETHYL-N-(6,7,8,9-TETRAHYDRO-5H-10-OXA-BENZO[A]AZULEN-3-YL)-PROPIONAMIDE]	0.1 to 0.4 µM	208 to 209 °C	–
CCN(CC)C(=O)Nc1ccc2oc3c(c2c1)CCCC3 [Example 84, 1,1-DIETHYL-3-(6,7,8,9-TETRAHYDRO-DIBENZOFURAN-2-YL)-UREA]	3 to 5 µM	179 to 180 °C	–
O=C(CC1CCCCC1)Nc1ccc2oc3c(c2c1)CCCCCC3 [Example 65, 2-CYCLOHEXYL-N-[6,7,8,9,10,11-HEXAHYDRO-BENZO[B]-CYCLOOCTA[D]FURAN-2-YL]ACETAMIDE]	4 to 10 µM	180 to 181 °C	–
CC(C)CC(=O)Nc1ccc2oc3c(c2c1)CCCC3 [Example 2, 3-METHYL-N-(6,7,8,9-TETRAHYDRO-DIBENZOFURAN-2-YL)-BUTYRAMIDE]	1.2 to 4 µM	154 to 157 °C	–
CC(C)CCC(=O)Nc1ccc2oc3c(c2c1)CCCC3 [Example 14, 4-METHYL-N-(6,7,8,9-TETRAHYDRO-DIBENZOFURAN-2-YL)-PENTANAMIDE]	10 to 20 µM	145.5 to 146 °C	–
CCC(=O)Nc1ccc2oc3c(c2c1)CCCC3 [Example 8, N-(6,7,8,9-TETRAHYDRO-DIBENZOFURAN-2-yl)-PROPIONAMIDE]	4 to 8 µM	164 to 165 °C	–
O=C(CC1CCCCC1)Nc1ccc2oc3c(c2c1)CCCCC3 [Example 29, 2-CYCLOHEXYL-N-[7,8,9,10-TETRAHYDRO-6H-BENZO[B]-CYCLOHEPTA[d]FURAN-2-YL]ACETAMIDE]	1 to 10 µM	188 to 189 °C	–

From patent publication US7601856B2 (Wyeth, priority 2006, dated 2009)
